Measured values published in ChEMBL document CHEMBL4837257, “Discovery of the Oxadiazine FRM-024: A Potent CNS-Penetrant Gamma Secretase Modulator” (J Med Chem, 2021).

Key:
[1] = Clearance in nonhuman primate at 1 mg/kg, iv; format: ADME, organism-based; details: primates, in vivo
[2] = system: Rattus norvegicus; assay: In vivo modulation of gamma secretase in rat assessed as reduction in Abeta42 levels in brain at 30 mg/kg, po measured at 16 hrs by ELISA relative to control; format: functional; design: scale not given: the % may be the effect or the level left
[3] = Clearance in dog blood relative to hepatic blood flow; format: ADME, tissue-based, Canis lupus familiaris
[4] = Toxicity in rat assessed as effect on cardiac compliance by telemetry; details: in vivo
[5] = target: Cannabinoid receptor 1 (Homo sapiens) (UniProt P21554); assay: Inhibition of Cannabinoid receptor 1 (unknown origin) at 10 uM relative to control
[6] = system: Rattus norvegicus; assay: In vivo modulation of gamma secretase in rat assessed as reduction in Abeta40 levels in CSF by measuring AUC(0 to 24 hrs) at 30 mg/kg, po by ELISA; format: functional, Cerebrospinal fluid; design: scale not given: the % may be the effect or the level left
[7] = target: Cytochrome P450 3A4 (Homo sapiens, UniProt P08684); assay: Inhibition of CYP3A4 in human hepatocytes upto 50 uM incubated for 72 hrs; format: ADME, cell-based, Hepatocyte
[8] = Clearance in nonhuman primate blood relative to hepatic blood flow; format: ADME, tissue-based; details: primates
[9] = species: Homo sapiens; assay: Inhibition of adenosine transporter (unknown origin) at 10 uM relative to control
[10] = species: Homo sapiens; assay: Inhibition of sodium channel (unknown origin) at 10 uM relative to control
[11] = Toxicity in guinea pig assessed as effect on ion channel function in heart by Langendorff test; format: tissue-based, Cavia porcellus; details: in vivo
[12] = target: T1, Cytochrome P450 2B6 (Homo sapiens, UniProt P20813); assay: Inhibition of CYP2B6 in human hepatocytes upto 50 uM incubated for 72 hrs; format: ADME, cell-based, Hepatocyte
T1 sequence (P20813 whole entry): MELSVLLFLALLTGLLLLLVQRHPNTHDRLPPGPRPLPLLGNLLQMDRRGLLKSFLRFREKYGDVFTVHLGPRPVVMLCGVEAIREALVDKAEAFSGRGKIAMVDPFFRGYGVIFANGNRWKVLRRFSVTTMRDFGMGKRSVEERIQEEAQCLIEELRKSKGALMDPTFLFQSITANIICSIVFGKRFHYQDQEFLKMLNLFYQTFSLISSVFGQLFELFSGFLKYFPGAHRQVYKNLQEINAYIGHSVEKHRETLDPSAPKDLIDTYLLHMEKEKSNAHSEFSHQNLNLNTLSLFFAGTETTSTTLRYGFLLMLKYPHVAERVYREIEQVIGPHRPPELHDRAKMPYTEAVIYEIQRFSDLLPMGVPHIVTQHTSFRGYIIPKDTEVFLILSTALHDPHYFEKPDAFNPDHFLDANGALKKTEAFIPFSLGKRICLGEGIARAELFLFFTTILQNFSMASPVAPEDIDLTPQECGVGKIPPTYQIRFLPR

[13] = target: T2, Cytochrome P450 2C8 (Homo sapiens, UniProt P10632); assay: Inhibition of CYP2C8 (unknown origin); format: ADME
T2 sequence (P10632 whole entry): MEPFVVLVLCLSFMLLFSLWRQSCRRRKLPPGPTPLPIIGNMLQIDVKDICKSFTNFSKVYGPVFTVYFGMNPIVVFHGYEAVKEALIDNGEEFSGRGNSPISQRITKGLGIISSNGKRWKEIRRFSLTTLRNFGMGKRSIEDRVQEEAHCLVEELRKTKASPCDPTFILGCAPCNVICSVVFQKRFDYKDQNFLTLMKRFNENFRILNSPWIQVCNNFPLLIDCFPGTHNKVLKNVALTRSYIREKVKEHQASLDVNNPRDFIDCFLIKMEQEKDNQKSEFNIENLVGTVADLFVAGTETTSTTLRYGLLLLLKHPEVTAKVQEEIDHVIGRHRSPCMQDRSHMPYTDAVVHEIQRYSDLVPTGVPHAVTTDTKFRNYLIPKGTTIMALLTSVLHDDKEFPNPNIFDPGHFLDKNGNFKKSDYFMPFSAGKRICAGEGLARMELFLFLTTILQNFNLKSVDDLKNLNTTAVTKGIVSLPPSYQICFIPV

[14] = target: D(2) dopamine receptor (Homo sapiens) (UniProt P14416); assay: Inhibition of dopamine 2-like receptor (unknown origin) at 10 uM relative to control
[15] = system: Rattus norvegicus; assay: In vivo modulation of gamma secretase in rat assessed as reduction in Abeta42 levels in CSF at 30 mg/kg, po measured after 6 hrs by ELISA relative to control; format: functional, Cerebrospinal fluid; design: scale not given: the % may be the effect or the level left
[16] = Clearance in dog at 0.5 mg/kg, iv; format: ADME, organism-based, Canis lupus familiaris; details: in vivo
[17] = Cmax in dog at 10 mg/kg, po; format: ADME, organism-based, Canis lupus familiaris; design: route oral, dose 10 mg/kg; details: in vivo
[18] = Drug metabolism in dog hepatocytes assessed as mono and di-oxidative metabolites formation after 4 hrs; format: ADME, cell-based, Canis lupus familiaris, Hepatocyte
[19] = system: Rattus norvegicus; assay: In vivo modulation of gamma secretase in rat assessed as reduction in Abeta40 levels in CSF at 30 mg/kg, po measured at 9 hrs by ELISA relative to control; format: functional, Cerebrospinal fluid; design: scale not given: the % may be the effect or the level left
[20] = Cmax in rat at 3 mg/kg, po; format: ADME, organism-based; design: route oral, dose 3 mg/kg; details: in vivo
[21] = AUClast in nonhuman primate at 10 mg/kg, po; format: ADME, organism-based; design: time 0 - last, route oral, dose 10 mg/kg; details: primates, in vivo
[22] = Genotoxicity in Salmonella typhimurium by mini-Ames test; format: toxicity; details: salmonella enterica subsp. enterica serovar typhimurium
[23] = Volume of distribution at steady state in dog at 0.5 mg/kg, iv; format: ADME, organism-based, Canis lupus familiaris; details: in vivo, read-out: Vdss
[24] = system: Mus musculus; assay: In vivo modulation of gamma secretase in mouse assessed as reduction in Abeta42 levels in brain at 30 mg/kg, po measured after 6 hrs relative to control; format: functional; design: scale not given: the % may be the effect or the level left
[25] = target: Gamma-secretase; assay: (§1) Modulation of gamma-secretase in human H4 cells expressing human wild type APP751 assessed as reduction in amyloid beta42 level incubated overnight by ELISA; format: cell-based
[26] = target: Gamma-secretase (Homo sapiens) (UniProt Q96BI3+Q9NZ42+Q8WW43+P49768+Q92542+P49810); assay: as §1; format: cell-based; details: filed as modulator
[27] = system: Rattus norvegicus; assay: In vivo modulation of gamma secretase in rat assessed as reduction in Abeta37 levels in brain by measuring AUC(0 to 24 hrs) at 30 mg/kg, po by ELISA; format: functional; design: scale not given: the % may be the effect or the level left
[28] = In vivo modulation of gamma secretase in nonhuman primate assessed as reduction in Abeta40 levels in CSF at 30 mg/kg, po measured after 12 hrs by ELISA relative to control; format: functional, Primates, Cerebrospinal fluid; design: scale not given: the % may be the effect or the level left
[29] = Toxicity in rat assessed as effect on cardiac output by telemetry; details: in vivo
[30] = Toxicity in guinea pig assessed as effect on sino-atrial node function in heart by Langendorff test; format: tissue-based, Cavia porcellus; details: in vivo
[31] = Half life in dog at 0.5 mg/kg, iv; format: ADME, organism-based, Canis lupus familiaris; details: in vivo
[32] = Clearance in rat at 1 mg/kg, iv; format: ADME, organism-based; details: in vivo
[33] = Toxicity in guinea pig assessed as reduction in heart flow rate by Langendorff test; format: tissue-based, Cavia porcellus; details: in vivo
[34] = Bioavailability in nonhuman primate at 1 mg/kg, iv; format: ADME, organism-based; details: primates, in vivo
[35] = Apparent permeability across apical to basolateral side in human Caco2 cells; format: ADME, cell-based; details: Caco-2

Sequence of D(2) dopamine receptor (Homo sapiens) (P14416 whole entry): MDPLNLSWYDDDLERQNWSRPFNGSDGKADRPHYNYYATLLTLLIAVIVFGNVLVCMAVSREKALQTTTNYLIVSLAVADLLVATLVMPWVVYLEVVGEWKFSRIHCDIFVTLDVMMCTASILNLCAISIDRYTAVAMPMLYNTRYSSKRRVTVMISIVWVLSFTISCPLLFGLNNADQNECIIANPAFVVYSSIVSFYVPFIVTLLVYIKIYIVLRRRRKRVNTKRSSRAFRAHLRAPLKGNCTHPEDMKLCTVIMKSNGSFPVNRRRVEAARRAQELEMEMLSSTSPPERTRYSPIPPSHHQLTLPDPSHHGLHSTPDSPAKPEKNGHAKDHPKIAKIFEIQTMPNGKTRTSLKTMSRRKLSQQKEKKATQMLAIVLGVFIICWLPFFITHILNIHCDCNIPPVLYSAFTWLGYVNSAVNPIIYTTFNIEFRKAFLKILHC
Sequence of Cytochrome P450 3A4 (P08684 whole entry): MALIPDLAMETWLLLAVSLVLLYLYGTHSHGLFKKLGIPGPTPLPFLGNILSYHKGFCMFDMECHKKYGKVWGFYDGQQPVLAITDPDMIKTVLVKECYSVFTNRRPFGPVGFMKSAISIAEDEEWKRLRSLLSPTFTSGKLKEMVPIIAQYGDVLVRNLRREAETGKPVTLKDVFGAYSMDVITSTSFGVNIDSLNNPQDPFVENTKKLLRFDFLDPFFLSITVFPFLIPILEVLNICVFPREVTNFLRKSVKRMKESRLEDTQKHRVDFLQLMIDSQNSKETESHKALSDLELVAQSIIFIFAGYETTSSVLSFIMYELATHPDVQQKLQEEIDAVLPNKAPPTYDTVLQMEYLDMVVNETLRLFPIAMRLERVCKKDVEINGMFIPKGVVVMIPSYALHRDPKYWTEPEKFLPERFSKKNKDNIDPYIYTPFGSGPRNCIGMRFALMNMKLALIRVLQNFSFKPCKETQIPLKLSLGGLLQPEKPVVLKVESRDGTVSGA
Sequence of Cannabinoid receptor 1 (Homo sapiens) (P21554 whole entry): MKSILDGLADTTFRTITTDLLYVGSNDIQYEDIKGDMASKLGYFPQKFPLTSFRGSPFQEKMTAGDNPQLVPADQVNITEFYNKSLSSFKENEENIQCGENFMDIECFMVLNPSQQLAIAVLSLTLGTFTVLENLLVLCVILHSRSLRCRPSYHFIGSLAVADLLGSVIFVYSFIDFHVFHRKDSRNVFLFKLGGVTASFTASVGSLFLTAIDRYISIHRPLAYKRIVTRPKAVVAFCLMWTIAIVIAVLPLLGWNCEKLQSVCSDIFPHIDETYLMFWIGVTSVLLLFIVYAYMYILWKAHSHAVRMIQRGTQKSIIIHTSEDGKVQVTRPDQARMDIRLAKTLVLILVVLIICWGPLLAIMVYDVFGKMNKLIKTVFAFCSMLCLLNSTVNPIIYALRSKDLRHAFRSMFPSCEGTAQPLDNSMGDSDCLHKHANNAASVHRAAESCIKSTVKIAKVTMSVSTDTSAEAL

Work on `COc1nc(C2=NOC(C3CC3)C(c3ccc(Cl)cc3)N2)ccc1-n1cnc(C)c1` (stereo not given) yielded a clearance [1] of 3.5 mL/min/kg, an Activity [2] of 50% and a CL [3] of less than 20%. The Activity [4] was “Non-Toxic”, the inhibition [5] was greater than 50% and the Activity [6] was 48%. For the same compound, the “inhibition (INH)” value [7] was “Not Active”, the CL [8] was less than 20% and the inhibition [9] was greater than 50%. For the same compound, the inhibition [10] was greater than 50%, the Activity [11] was “Non-Toxic” and the “inhibition (INH)” value [12] was “Not Active”. For the same compound, the IC50 [13] was 2600 nM, the inhibition [14] was greater than 50% and the Activity [15] was 88%. The clearance [16] was 3.4 mL/min/kg, the Cmax [17] was 4030 nM and the Drug metabolism [18] was “Metabolite_Detected”. The Activity [19] was 67%, the Cmax [20] was 754 nM and the AUC(0-t) [21] was 55.9 µM·h. The Activity [22] was “Non-Toxic”, the Vd [23] was 0.8 L/kg and the Activity [24] was 51%. The EC50 [25] was 9 nM, the EC90 [26] was 123 nM and the Activity [27] was 88%. The Activity [28] was 57%, the Activity [29] was “Non-Toxic” and the Activity [30] was “Non-Toxic”. For the same compound, the half-life [31] was 2.9 h, the clearance [32] was 3.1 mL/min/kg and the Activity [33] was “Non-Toxic”. The bioavailability [34] was 113% and the Papp A→B [35] was 6.6 ×10⁻⁶ cm/s.
